Patent US11950596B2, “Methods of protecting seeds from oxidants and microorganisms” (The United States of America, as represented by the …, priority 2020, dated 2024)
Read-outs that look alike come from different tables or passages of the source. Marks after values point to notes of the source that are not given here.

Legend:
[1] = system: twelve fungi (Aspergillus and Penicillium); test: Heat-sensitizing bioassay of OG, average MFC of twelve fungi; assay type: cell-based; conditions: 90 seconds; for MFC: read-out: average MFC of OG from twelve fungi
Experimental: (§1) As described in A. flavus 3357 test (see above), microfuge tubes were treated with mild heat (57.5° C.) or maintained at RT (22.0° C.) (90 seconds). After heat treatments, entire volume (200 μL) from each microfuge tube was spread onto fresh recovery LB agar (for bacteria) or PDA (for fungi), and plates were incubated at the optimum temperature for respective microorganisms (i.e., 35° C. for Aspergillus, 37° C. for E. coli, 28° C. for Penicillium/A. tumefaciens, respectively). The growth/survival of test microorganisms were monitored after 48 to 72 hrs of incubation.
(§2) Heat-sensitizing activity of OG against other fungi: Heat-sensitizing activity of OG was then investigated in other fungi (five Aspergillus strains and seven Penicillium strains) including fungicide resistant strains (i.e., P. expansum FR2, FR3 resistant to the conventional fungicide fludioxonil) (see Table 1).
(RT) to 57.5° C. (mild heat).

[2] = system: Brassica rapa Pekinensis seeds; test: Seed disinfection bioassay, germination of treated cabbage seeds; assay type: in vivo; conditions: for No. of seedlings germinated: 12 seeds; for % Seed germination: mean over 20/50° C. and 20/30 min
Experimental: Antifungal seed disinfection bioassays using OG: Effect of OG plus mild heat hurdle technology on the level of seed sanitation (Brassica rapa Pekinensis; Chinese cabbage hybrid) was evaluated. Twelve cabbage seeds (per treatment), unsterilized, were transferred to each 1.5 mL microcentrifuge tube filled with 1 mL (final volume) distilled water, without or with A. flavus (1×10^5 CFU/mL): (1) No OG, no A. flavus inoculum, 20 or 30 min, 20° C.; (2) No OG, no A. flavus inoculum, 20 or 30 min, 50° C.; (3) No OG, w/A. flavus, 20 or 30 min, 20° C.; (4) No OG, w/A. flavus, 20 or 30 min, 50° C.; (5) OG 2 mM, w/A. flavus, 20 or 30 min, 20° C., (6) OG 2 mM, w/A. flavus, 20 or 30 min, 50° C., (7) OG 3 mM, w/A. flavus, 20 or 30 min, 20° C.; (8) OG 3 mM, w/A. flavus, 20 or 30 min, 50° C.; (9) OG 4 mM, w/A. flavus, 20 or 30 min, 20° C.; and (10) OG 4 mM, w/A. flavus, 20 or 30 min, 50° C. After each treatment, the treated seeds (total 12 seeds per treatment) were transferred to PDA and the plates were incubated in the dark at room temperature (RT; 20° C.) for seed germination. After seed germination, the growth of seedlings and fungal germination on the surfaces of germinated seeds were monitored up to 7 days (RT).
Seed disinfection via heat-sensitizing activity of OG: Heat-sensitizing capacity of OG was investigated further with crop seeds (Brassica rapa Pekinensis; Chinese cabbage hybrid) contaminated with A. flavus 3357 on the seed surfaces. OG (0, 2, 3, 4 mM) and mild heat (50° C.; Control: 20° C.) were co-applied for 20 to 30 minutes, and the rates of seed germination were also determined.

[3] = system: P. griseofulvum 2159; test: Heat-sensitizing bioassay of OG (MFC) in other fungi; assay type: cell-based, Penicillium griseofulvum; conditions: 90 seconds
Experimental: as §1, §2

[4] = system: P. expansum FR3; test: as above; assay type: cell-based; conditions: Penicillium expansum, fludioxonil resistant mutant
Experimental: as §1, §2

[5] = system: P. expansum W1; test: as above; assay type: cell-based; conditions: Penicillium expansum, 90 seconds
Experimental: as §1, §2

[6] = system: P. expansum W2; test: as above; assay type: cell-based; conditions: Penicillium expansum, 90 seconds
Experimental: as §1, §2

[7] = system: P. expansum FR2; test: as above; assay type: cell-based; conditions: Penicillium expansum, fludioxonil resistant mutant
Experimental: as §1, §2

[8] = system: E. coli JM109; test: Heat-sensitizing bioassay of OG (MBC) in bacteria; assay type: cell-based; conditions: Escherichia coli, 90 seconds, read-out: minimum bactericidal concentration (MBC) of OG
Experimental: as §1
(§3) Heat-sensitizing activity of OG against bacteria (A. tumefaciens, E. coli): Heat-sensitizing activity of OG was also investigated against bacterial cells (i.e., E. coli and plant-pathogenic A. tumefaciens). […] (Table 4; FIG. 2).

[9] = system: A. tumefaciens or E. coli; test: Heat-sensitizing bioassay of OG, average MBC of bacteria; assay type: cell-based, Agrobacterium tumefaciens, Escherichia coli; conditions: 90 seconds
Experimental: as §1, §3

[10] = system: A. brasiliensis 16404; test: Heat-sensitizing bioassay of OG (MFC) in other fungi; assay type: cell-based, Aspergillus brasiliensis; conditions: 90 seconds
Experimental: as §1, §2

[11] = system: P. chrysogenum 824; test: as above; assay type: cell-based, Penicillium chrysogenum; conditions: 90 seconds
Experimental: as §1, §2

[12] = system: A. parasiticus 2999; test: as above; assay type: cell-based, Aspergillus parasiticus; conditions: 90 seconds
Experimental: as §1, §2

[13] = system: A. parasiticus 5862; test: as above; assay type: cell-based, Aspergillus parasiticus; conditions: 90 seconds
Experimental: as §1, §2

With `CCCCCCCCOC(=O)c1cc(O)c(O)c(O)c1` [Octyl gallate] as the compound, how does the MFC ([1]; 22.0° C., listed as OG) read?
The MFC was greater than 283.3 µM.

And the “average MFC of OG from twelve fungi” value ([1]; 57.5° C., listed as OG)?
The value was 175.8 (p < 0.005) μM.

And the MFC ([1]; Aspergillus, 22.0° C.)?
The MFC was greater than 283 µM.

And the MFC ([1]; Aspergillus, 57.5° C.)?
Its MFC is 176 µM.

And the “No. of seedlings germinated” value ([2]; OG 2 mM, 20° C., 20 min)?
The value was 12.

What about the “No. of seedlings germinated” value ([2]; OG 2 mM, 20° C., 30 min) of the same compound?
Its value is 12.

And the “No. of seedlings germinated” value ([2]; OG 2 mM, 50° C., 20 min)?
Its value is 12.

And the “No. of seedlings germinated” value ([2]; OG 2 mM, 50° C., 30 min)?
The value was 10.

And the “% Seed germination” value ([2]; OG 2 mM)?
The value was 96 ± 8%.

What about the “No. of seedlings germinated” value ([2]; OG 3 mM, 20° C., 20 min) of the same compound?
The value was 12.

And the “No. of seedlings germinated” value ([2]; OG 3 mM, 20° C., 30 min)?
The value was 12.

What about the “No. of seedlings germinated” value ([2]; OG 3 mM, 50° C., 20 min) of the same compound?
The value was 12.

What about the “No. of seedlings germinated” value ([2]; OG 3 mM, 50° C., 30 min) of the same compound?
The value was 11.

What about the “% Seed germination” value ([2]; OG 3 mM) of the same compound?
The value was 98 ± 4%.

What about the “No. of seedlings germinated” value ([2]; OG 4 mM, 20° C., 20 min) of the same compound?
The value was 12.

And the “No. of seedlings germinated” value ([2]; OG 4 mM, 20° C., 30 min)?
The value was 12.

And the “No. of seedlings germinated” value ([2]; OG 4 mM, 50° C., 20 min)?
Its value is 11.

What about the “No. of seedlings germinated” value ([2]; OG 4 mM, 50° C., 30 min) of the same compound?
The value was 11.

And the “% Seed germination” value ([2]; OG 4 mM)?
Its value is 96 ± 5%.

What about the “germination rate of the crop seeds compared to the control” value ([2]; OG as low as 3 mM, mild heat 50° C., 20 min) of the same compound?
Its value is “not affected”.

And the MFC ([3]; Penicillium griseofulvum, 2159, 22.0° C.)?
Its MFC is greater than 300 µM.

And the MFC ([3]; Penicillium griseofulvum, 2159, 57.5° C.)?
The MFC was 180 µM.

And the MFC ([4]; FR3, read-out: MFC of OG, 22.0° C., 90 seconds)?
Its MFC is greater than 300 µM.

And the MFC ([4]; FR3, read-out: MFC of OG, 57.5° C., 90 seconds)?
Its MFC is 160 µM.

And the MFC ([5]; W1, 22.0° C.)?
Its MFC is greater than 300 µM.

And the MFC ([5]; W1, 57.5° C.)?
Its MFC is 160 µM.

What about the MFC ([6]; W2, 22.0° C.) of the same compound?
Its MFC is greater than 300 µM.

What about the MFC ([6]; W2, 57.5° C.) of the same compound?
Its MFC is 170 µM.

And the MFC ([7]; FR2, read-out: MFC of OG, 22.0° C., 90 seconds)?
Its MFC is greater than 300 µM.

What about the MFC ([7]; FR2, read-out: MFC of OG, 57.5° C., 90 seconds) of the same compound?
The MFC was 190 µM.

What about the MBC ([8]; JM109, 22° C.) of the same compound?
Its MBC is 300 µM.

What about the MBC ([8]; JM109, 57.5° C.) of the same compound?
Its MBC is 75 µM.

What about the MBC ([9]; 22° C.) of the same compound?
Its MBC is 250 µM.

And the MBC ([9]; 57.5° C.)?
Its MBC is 75 µM.

And the “average MBC of OG” value ([9]; 57.5° C., listed as OG)?
Its value is 75* μM.

What about the MFC ([10]; Aspergillus brasiliensis, 16404, 22.0° C.) of the same compound?
The MFC was greater than 300 µM.

What about the MFC ([10]; Aspergillus brasiliensis, 16404, 57.5° C.) of the same compound?
The MFC was 160 µM.

What about the MFC ([11]; Penicillium chrysogenum, 824, 22.0° C.) of the same compound?
The MFC was 250 µM.

What about the MFC ([11]; Penicillium chrysogenum, 824, 57.5° C.) of the same compound?
Its MFC is 130 µM.

And the MFC ([12]; Aspergillus parasiticus, 2999, 22.0° C.)?
The MFC was greater than 300 µM.

What about the MFC ([12]; Aspergillus parasiticus, 2999, 57.5° C.) of the same compound?
The MFC was 200 µM.

And the MFC ([13]; Aspergillus parasiticus, 5862, 22.0° C.)?
The MFC was greater than 300 µM.

And the MFC ([13]; Aspergillus parasiticus, 5862, 57.5° C.)?
Its MFC is 300 µM.
